In patent US12285501B2, “Compound targeting norepinephrine transporter” (priority 2019, dated 2025):

Assays:
NET [1] = target: T1, NET (Homo sapiens, UniProt P23975); test: Competitive inhibition of 131I-MIBG uptake in SK-N-SH cells expressing NET; type: cell-based; conditions: for IC50: non-radioactive compounds, percent of control MIBG uptake
T1 construct: SK-N-SH cells expressing NET; host or cells: SK-N-SH
Description: (§1) SK-N-SH cells expressing NET were cultivated according to the instructions from the supplier (Sigma-Aldrich Chemie GmbH, Munich, Germany). The cells were transferred to a 12 well plate and incubated in 1 mL EMEM while reaching 2×10^5 cells/well density the day for testing. The medium was removed, and the cells were washed with 1 mL EMEM. A solution of ^18F-AF78 (3.7 kBq) in EMEM (700 μL) was added to each well with or without inhibitors (NE, MHPG, cold AF78 each with a final concentration 100 nM, 1 μM, 10 μM and 100 μM, respectively; Desipramine 10 μM). The plate was incubated for 60 min at 37° C. The cells were washed with ice-cold PBS buffer (1 mL×2) in order to remove unbound tracer. NaOH solution (0.1 N, 500 μL) was added to each well followed by the collection of cell pellet and the measurement in γ-counter (FH412, Frieseke & Höpfner, Erlangen, Germany) using differential energy windows (±20%) for ^18F and ^131I.
[drawing 27] were synthesized. The compounds were tested in SK-N-SH cells expressing NET in order to evaluate their competitive binding affinity against ^131I-MIBG. […] Results are expressed as percent of control MIBG uptake. […] (IC50 of AF78 vs. MHPG p value<0.01)
NE and cold MIBG were used as references. As a result, cold reference 2 (AF78) could inhibit the cell uptake of ^131I-MIBG in a concentration-dependent manner. In contrast, cold reference 1 was not able to block the uptake of ^131I-MIBG even at the highest concentration tested. Inhibition was only 40% at 100 μM. […] The introduction of long alkyl chain at 3-position on the benzene ring seems not to be tolerated, whereas introduction at the 4-position seems to be well tolerated.

NET [2] = target: T1, NET; test: Competitive inhibition of 18F-AF78 uptake in SK-N-SH cells; type: cell-based; conditions: percentage of control AF78 uptake
Description: as §1
To further confirm the tracer's binding affinity, ^18F-labeled AF78 was used in competitive inhibition assay, to which different concentrations of NE, MHPG, and cold reference 2 (AF78) were added. […] Results are expressed as percentage of control AF78 uptake. […] (IC50 of MHPG vs. AF78, p value<0.05). […]

[3] = time frame of 50-60 min imaging; Raffel et al., J. Nucl. Med. 2017; cited from earlier work
NET [4] = target: T2, NET (Rattus norvegicus, UniProt Q63380); test: Cardiac PET imaging in healthy rats with and without NET blockade; type: in vivo
T2 construct: tissue Japan SLC, Inc., Japan (animals); host or cells: heart (myocardium) of healthy male Wistar rats, in vivo
T2 sequence (Q63380 1-617): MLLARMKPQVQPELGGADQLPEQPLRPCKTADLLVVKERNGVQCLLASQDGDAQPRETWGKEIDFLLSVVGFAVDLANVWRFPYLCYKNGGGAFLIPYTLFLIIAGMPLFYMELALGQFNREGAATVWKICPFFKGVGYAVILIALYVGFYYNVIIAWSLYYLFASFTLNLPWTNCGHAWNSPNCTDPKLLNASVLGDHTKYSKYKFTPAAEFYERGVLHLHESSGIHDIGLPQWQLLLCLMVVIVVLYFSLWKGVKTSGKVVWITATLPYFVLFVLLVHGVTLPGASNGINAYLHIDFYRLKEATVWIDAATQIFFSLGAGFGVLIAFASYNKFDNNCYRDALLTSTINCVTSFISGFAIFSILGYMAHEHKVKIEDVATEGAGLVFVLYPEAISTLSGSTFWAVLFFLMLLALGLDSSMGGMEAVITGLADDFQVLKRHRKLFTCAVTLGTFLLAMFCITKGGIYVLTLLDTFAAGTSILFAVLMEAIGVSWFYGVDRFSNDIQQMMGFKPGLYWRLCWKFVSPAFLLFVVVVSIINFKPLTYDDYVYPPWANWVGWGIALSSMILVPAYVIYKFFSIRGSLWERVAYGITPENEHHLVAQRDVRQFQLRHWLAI
Text: Rats were maintained anaesthetized during the whole experiment by 2% isoflurane. All scans were obtained using a dedicated small-animal PET system (microPET FOCUS 120, SIEMENS, Germany). The PET imaging protocol was designed to assess the systemic and myocardial tracer distribution of ^18F-AF78. Shortly before the injection of 10-20 MBq of ^18F-AF78 via the tail vein, a dynamic PET scan was initiated. In order to evaluate the cardiac uptake mechanism of the tracer, rats were pretreated with phenoxybenzamine (50 mg/kg intravenously, Sigma-Aldrich, Tokyo, Japan). Ten minutes after the pretreatment, 10-20 MBq of ^18F-AF78 was administered via the tail vein. A 10 min dynamic PET session was started shortly before the tracer injection. PET image was acquired in list-mode format. The data were sorted into 3-dimensional sonograms, which were then rebind with a Fourier algorithm to reconstruct dynamic images using a 2-dimensional ordered-subset expectation maximization (OSEM) algorithm. All images were corrected for ^18F decay, random, and dead time; correction for attenuation was not performed (Higuchi JNM 2013). The obtained PET images were analyzed with the public domain tool AMIDE imaging software (A Medical Imaging Data Examiner, version 1.01). […]

NET [5] = target: T2, NET; test: Ex vivo tissue counting study (heart/tissue distribution ratio) with and without NET blockade; type: in vivo; conditions: rats
Description: (§2) Standard protocols and data analysis methods for non-invasive PET imaging of small animals have been established in the working group of the inventors (Rischpler C. et al., Eur J Nucl Med Mol Imaging. 2013; 40(7): 1077-83). Healthy male Wistar rats (Japan SLC, Inc., Japan) each weighing 200-250 g were used. The rats are anaesthetized with 2% isoflurane. 10-20 MBq of the tracer was administered via tail vein injection. Ten minutes after the tracer administration, the animals were immediately euthanized. Hearts, livers and blood were obtained for ex vivo analysis with autoradiography (Typhoon FLA 7000) and tissue counts with γ-counter (1480 WIZARD™ 3″). Following weight and decay correction of tissue counts, the heart to blood (H/B) and heart to liver (H/L) count ratio were calculated, respectively. For autoradiography, the rats were first injected via tail vein either with or without (control) NET blocker phenoxynezamine 50 mg/kg after anaesthesia. After 10 min, the tracer (10-20 MBq) was administered. The hearts were harvested 10 min later, frozen, and cut into 20 μm short axis slices using a cryostat (Cryotome FSE, Thermo Fisher Scientific). To obtain the distribution of the tracer, autoradiography plates (Fuji SR-type image plate, Fujifilm Corporation, Tokyo, Japan) were exposed to the short axis slices immediately for 18 h and thereafter imaged using a digital autoradiographic system (Typhoon FLA 7000).
The columns are the mean value of 2 rats. Data were determined 10 min post injection. Y-axis represents the heart/tissue distribution ratio. […] In comparison, according to Raffel, D. et al., J. Nucl. Med. 2017, 58 (Suppl 1): 96 MHPG and PHPG show tissue concentration ratios at a time frame of 50-60 min imaging as follows: MHPG with H/B 3.6 and H/L 2.3; PHPG with 5.4 and 1.1, respectively.

NET [6] = target: T2, NET; test: Ex vivo autoradiography of left ventricular short axis slices; type: in vivo
Description: as §2, with “To obtain the distribution of the tracer, autoradiography plates (Fuji SR-type image plate, Fujifilm Corporation, Tokyo, Japan) were exposed to the short axis slices immediately for 18 h and thereafter imaged using a digital autoradiographic system (Typhoon FLA 7000).” left out

NET [7] = target: T1, NET; test: Tracer cell uptake in SK-N-SH cells with and without NET inhibitor desipramine (DMI); type: cell-based; conditions: desipramine 10 μM, 60 min at 37° C.
Description: as §1
After successful radiolabeling, ^18F-AF78 was also tested in SK-N-SH cells in order to check cell uptake. Antidepressant desipramine (DMI) was used as the inhibitor of NET. The addition of DMI blocks cell uptake of tracers specifically transported by NET.

[8] = Biodistribution study (SUV) in monkey; type: in vivo
Description: A further biodistribution study with ^18F-AF78 in monkey has been conducted. […] The liver uptake is decreasing and is lower than cardiac uptake 35 min after tracer administration.

[9] = Static PET images of cardiac uptake in several species; type: in vivo; conditions: healthy rats, rabbits, pigs and monkeys
NET [10] = test: Kinetic study in monkeys' hearts (DMI blocking, DMI chase, tyramine chase); type: in vivo, monkey
Text: A kinetic study has been performed with ^18F-AF78 in monkeys' hearts. The results confirmed the specific uptake of ^18F-AF78 via NET and stable vesicular storage mechanism in the sympathetic nerve terminals. […] Furthermore, a continuous tyramine (TYR) chase was applied after tracer administration. Tyramine is known as agent causing a catecholamine release thus enhancing tracer washout. […] Decrease was statistically significant (p<0.005) compared to control group (FIG. 18, lower panel).

NET [11] = test: Dynamic PET time-activity curves in Cynomolgus monkey with and without DMI pretreatment; type: in vivo
Description: For control, Cynomolgus monkey (male, 5.3 kg) was maintained anaesthetized during the imaging study using 3.3% seboflurane. Shortly before receiving an intravenous injection of the tracer (44 MBq), a 120 min dynamic PET session was started. In addition, to investigate the inhibition of cardiac neuronal uptake-1, DMI (1 mg/kg, iv.) was injected to Cynomolgus monkey (female, 5.6 kg) 10 min before the tracer (18.2 MBq) injection and PET assessment started. PET was conducted using a PCA-2000A positron scanner (Toshiba Medical Systems Corporation, Otawara, Japan). Sinograms were collected with the following pattern: 10 sec×12, 30 sec×6, 300 sec×23. The tissue uptake was determined as arbitrary unit (A.U.), from which a time-activity curves of different organs were generated.
A tissue bio-distribution consistent with that observed in rat could be observed with clear long term and stable cardiac uptake during the total 120 min scan whereas uptake in adjacent liver and lungs was low. Representative time activity curves derived from ^18F-AF78 dynamic images in control and sympathetic nerve blocked monkey were generated from the scanning data. […] In the control, activity in the liver reached a peak a little while after the tracer injection, then decreased slowly to blood level after 60 min.

[12] = 10 min post injection, control, mean of 2 rats
[13] = PhB 50 mg/kg 10 min before tracer, 10 min post injection

T1 sequence (P23975 whole entry): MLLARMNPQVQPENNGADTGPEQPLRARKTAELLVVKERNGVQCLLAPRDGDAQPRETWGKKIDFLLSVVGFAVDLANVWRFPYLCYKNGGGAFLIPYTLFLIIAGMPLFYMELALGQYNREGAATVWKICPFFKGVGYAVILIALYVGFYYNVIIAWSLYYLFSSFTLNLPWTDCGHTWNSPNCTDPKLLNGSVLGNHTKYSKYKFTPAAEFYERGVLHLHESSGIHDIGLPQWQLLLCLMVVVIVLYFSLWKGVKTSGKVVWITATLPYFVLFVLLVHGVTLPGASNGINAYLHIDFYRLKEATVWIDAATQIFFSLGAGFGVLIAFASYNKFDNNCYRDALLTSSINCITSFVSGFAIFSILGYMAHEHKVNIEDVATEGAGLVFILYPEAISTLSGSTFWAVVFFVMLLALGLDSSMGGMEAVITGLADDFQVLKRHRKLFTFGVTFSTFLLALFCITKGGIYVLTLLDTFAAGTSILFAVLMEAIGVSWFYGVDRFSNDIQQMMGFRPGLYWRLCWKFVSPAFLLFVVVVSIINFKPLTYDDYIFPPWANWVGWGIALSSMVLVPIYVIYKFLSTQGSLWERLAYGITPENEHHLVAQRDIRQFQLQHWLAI

Compound `N=C(N)NCCc1ccc(OCCCF)c(F)c1` [AF78] has an IC50 (NET [1]) of 2.57 ± 1.37 µM and an IC50 (NET [2]) of 2.68 ± 0.83 µM.

In the case of `N=C(N)NCCc1ccc(O)c([18F])c1` [PHPG, ^18F-3-fluoro-4-hydroxyphenethylguanidine], the “H/B tissue concentration ratio” value [3] is listed as 5.4 and the “H/L tissue concentration ratio” value [3] is listed as 1.1.

In the case of `NC(N)=NCCc1ccc(OCCC[18F])c(F)c1` [^18F-AF78], the “Myocardial tracer uptake after NET blockade, static PET images” value (NET [4]; PhB 50 mg/kg iv 10 min before tracer) is reported as “significantly decreased the myocardial tracer uptake”, the “Myocardial tracer uptake, static PET images” value (NET [4]; no pretreatment) is reported as “homogeneous and clear tracer uptake throughout the left ventricular wall” and the “Heart-to-Blood (H/B) ratio” value (NET [5]; [12]) is reported as 12.54. The “Heart-to-Liver (H/L) ratio” value (NET [5]; [12]) was 6.14, the “Decline in the H/B ratio by PhB” value (NET [5]; PhB 50 mg/kg) was “approximately 6 fold” and the “Decline in the H/L ratio by PhB” value (NET [5]; PhB 50 mg/kg) was ~5 fold. For the same compound, the “Heart-to-Blood (H/B) ratio after NET blockade” value (NET [5]; [13]) was 2.41, the “Heart-to-Liver (H/L) ratio after NET blockade” value (NET [5]; [13]) was 1.30 and the “Tracer distribution in myocardium (autoradiography)” value (NET [6]; rat LVSA slices, control) was “homogeneous tracer uptake throughout the left ventricular walls”. The “Tracer distribution after PhB pretreatment (autoradiography)” value (NET [6]; rat, PhB 50 mg/kg i.v. 10 min before tracer) was “could be inhibited by a pretreatment with phenoxybenzamine”, the “Tracer uptake inhibited by the addition of DMI” value (NET [7]) was 94% and the “Biodistribution (SUV) result” value [8] was “stable cardiac uptake along with fast blood pool washout and relative fast liver uptake washout”. For the same compound, the “Time after tracer administration at which liver uptake is lower than cardiac uptake” value [8] was 35 min, the “Cardiac uptake in static PET images across species” value [9] was “works in all of these species” and the “Cardiac tracer uptake with DMI chase vs control” value (NET [10]; DMI injected 10 min after tracer) was “no difference can be seen compared to control group”. For the same compound, the “Cardiac tracer uptake with DMI blocking vs control” value (NET [10]; DMI injected 10 min before tracer) was “specifically blocked the tracer uptake with significant difference”, the “Cardiac tracer uptake with tyramine chase vs control” value (NET [10]; continuous tyramine chase after tracer) was “decreased considerable” and the “Time after which liver activity decreased to blood level” value (NET [11]; control monkey) was 60 min. For the same compound, the “Cardiac uptake over scan time” value (NET [11]; control monkey, 120 min dynamic PET) was “maintained activity throughout the entire 120 min scan time”, the “Liver uptake after DMI pretreatment” value (NET [11]; monkey, DMI 1 mg/kg iv) was “not affected by pretreatment with DMI” and the “Heart uptake after DMI pretreatment” value (NET [11]; monkey, DMI 1 mg/kg iv 10 min before tracer) was “markedly reduced the heart uptake level”.

In the case of `N=C(N)NCc1cccc([131I])c1` [^131I-MIBG, ^123/131I-meta-iodobenzylguanidine, reference compound], the “Tracer uptake inhibited by the addition of DMI” value (NET [7]) is reported as 87%.

Work on `N=C(N)NCCc1ccc(F)c(OCCCF)c1` [cold reference 1] yielded an inhibition at 100 µM (NET [1]; at 100 μM (highest concentration tested)) of 40%.

In the case of “^18F-4-fluoro-3-hydroxyphenethylguanidine [MHPG]”, the “H/B tissue concentration ratio” value [3] is given as 3.6, the “H/L tissue concentration ratio” value [3] is given as 2.3 and the IC50 (NET [1]) is given as 6.8 ± 0.73 µM. For the same compound, the IC50 (NET [2]) was 0.85 ± 0.63 µM.
